Laboratory results: ChEMBL document CHEMBL1201862, “PubChem BioAssay data set” (2004)
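Where inhibition never reached the appropriate level, the endpoint shown equals the highest concentration tested. Otherwise, values were interpolated linearly from a five-concentration, 48-hour dose response in 96-well plates. GI50 = concentration required for 50% inhibition of growth.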 Calls of active or inactive are those of the source. Rule as the data show it: active = GI50 up to about 1.1 µM and inactive = higher.

Tests used:
Experiment in all cases: NCI tumour cell line growth inhibition, 48 h
786-0 = tested on: 786-0
CAKI-1 = tested on: CAKI-1
HL-60 = tested on: HL-60
HOP-62 = tested on: HOP-62
MCF7 = tested on: MCF7
MDA-N = tested on: MDA-N
Malme-3M = tested on: Malme-3M
NCI-H226 = tested on: NCI-H226
NCI-H460 = tested on: NCI-H460
NCI-H522 = tested on: NCI-H522
SF-268 = tested on: SF-268
SF-295 = tested on: SF-295
SK-MEL-28 = tested on: SK-MEL-28
SK-MEL-5 = tested on: SK-MEL-5
SN12C = tested on: SN12C
T47D = tested on: T47D
TK-10 = tested on: TK-10
UACC-257 = tested on: UACC-257
UACC-62 = tested on: UACC-62
UO-31 = tested on: UO-31

Measured: GI50

O=C1c2ccccc2C(=O)c2c1ccc(C1C(=O)c3ccccc3C1=O)c2-c1c(C2C(=O)c3ccccc3C2=O)ccc2c1C(=O)c1ccccc1C2=O
inactive: 786-0 > 100 µM | CAKI-1 > 100 µM | HL-60 7.89 µM | HOP-62 > 100 µM | MCF7 > 100 µM | MDA-N > 100 µM | Malme-3M > 100 µM | NCI-H226 > 100 µM | NCI-H460 > 100 µM | NCI-H522 > 100 µM | SF-268 > 100 µM | SF-295 > 100 µM | SK-MEL-28 > 100 µM | SK-MEL-5 > 100 µM | SN12C > 100 µM | T47D > 100 µM | TK-10 > 100 µM | UACC-257 > 100 µM | UACC-62 > 100 µM | UO-31 > 100 µM
